Measured values: the NIST ThermoML archive (doi:10.1021/acs.jced.5b00936)

How the values were obtained:
[1] = for viscosity / mass density: 100 kPa, Liquid; for viscosity: Concentric cylinders viscometry; for mass density: Vibrating tube method; for Triple point temperature: Crystal, DSC
[2] = refractive index (Na D-line) (dimensionless); settings: 100 kPa, Liquid, Standard Abbe refractometry

CCCC[P+](CCCC)(CCCC)CCCC.O=S(=O)([O-])CC(O)CN1CCOCC1 [tetrabutylphosphonium 2-hydroxy-3-morpholinopropanesulfonate]
Settings	mass density, [1] [kg/m3]	refractive index, [2]	viscosity, [1] [mPa·s]
288.15 K	1062.9	1.4959	22869
293.15 K	1059.9	1.49447	12430
298.15 K	1056.8	1.49299	7312.9
303.15 K	1053.7	1.49152	4493.6
308.15 K	1050.5	1.48999	2859.8
313.15 K	1047.5	1.48836	1889.2
318.15 K	1044.4	1.4866	1277
323.15 K	1041.3	1.48573	886.7
328.15 K	1038.2	1.4841	630.4
333.15 K	1035.1	1.48239	457.8
338.15 K	1032.1	1.48069	339.2
343.15 K	1029.1	1.47908	255.6
348.15 K	1026.2	1.47761	195.8
353.15 K	–	1.47622	152.3

C[N+](C)(C)CCO.O=S(=O)([O-])CC(O)CNC1CCCCC1 (configuration not stated)
Settings	Triple point temperature [K]
[1]	365.15

CCCC[N+](CCCC)(CCCC)CCCC.O=S(=O)([O-])CCN(CCO)CCO
Settings	mass density, [1] [kg/m3]	refractive index, [2]	viscosity, [1] [mPa·s]
288.15 K	–	1.49093	–
293.15 K	–	1.48966	–
298.15 K	–	1.48834	–
303.15 K	–	1.48706	–
308.15 K	–	1.48577	–
313.15 K	1052.4	1.48445	12001
318.15 K	1049.6	1.48317	7582.5
323.15 K	1046.8	1.48185	4970.6
328.15 K	1044	1.48052	3346.6
333.15 K	1041.2	1.4792	2305.7
338.15 K	1038.4	1.47784	1621.8
343.15 K	1035.6	1.47646	1163.2
348.15 K	1032.8	1.47502	848.3
353.15 K	1030.1	1.47363	630

CCCC[P+](CCCC)(CCCC)CCCC.O=S(=O)([O-])CCN(CCO)CCO
Settings	mass density, [1] [kg/m3]	refractive index, [2]	viscosity, [1] [mPa·s]
288.15 K	1066.8	1.49778	41313
293.15 K	1063.9	1.4964	24078
298.15 K	1061	1.49502	14082
303.15 K	1058.1	1.49365	8504.9
308.15 K	1055.3	1.49333	5315.8
313.15 K	1052.4	1.49198	3370.9
318.15 K	1049.6	1.49061	2199.4
323.15 K	1046.8	1.48921	1356.9
328.15 K	1044	1.48744	871
333.15 K	1041.2	1.4859	611.8
338.15 K	1038.4	1.48437	458.9
343.15 K	1035.6	1.48287	352.3
348.15 K	1032.8	1.48142	273.6
353.15 K	1030.1	1.48003	214.5

C[N+](C)(C)CCO.O=S(=O)([O-])CC(O)CNC(CO)(CO)CO (configuration not stated)
Settings	mass density, [1] [kg/m3]	refractive index, [2]	viscosity, [1] [mPa·s]
323.15 K	–	1.50991	–
328.15 K	1316.4	1.50884	56778
333.15 K	1313.3	1.50769	34168
338.15 K	1310.3	1.50654	21501
343.15 K	1307.4	1.50552	14013
348.15 K	1304.6	1.5044	9355.9
353.15 K	1301.8	1.50327	6385.4

CCCC[N+](CCCC)(CCCC)CCCC.O=S(=O)([O-])CC(O)CNC(CO)(CO)CO
Settings	Triple point temperature [K]
[1]	364.15

C[N+](C)(C)CCO.O=S(=O)([O-])CC(O)CN1CCOCC1 (configuration not stated)
Settings	mass density, [1] [kg/m3]	refractive index, [2]	viscosity, [1] [mPa·s]
308.15 K	1235.3	1.49778	49189
313.15 K	1232	1.49658	28090
318.15 K	1228.7	1.49531	16897
323.15 K	1225.6	1.49453	10898
328.15 K	1222.5	1.49323	6933.2
333.15 K	1219.5	1.49185	4600.3
338.15 K	1216.5	1.48995	3099.4
343.15 K	1213.5	1.48831	2158.8
348.15 K	1211.6	1.48671	1545.5
353.15 K	1209.7	1.4852	1122.3

CCCC[N+](CCCC)(CCCC)CCCC.O=S(=O)([O-])CC(O)CN1CCOCC1 [tetrabutylammonium 2-hydroxy-3-morpholinopropanesulfonate]
Settings	mass density, [1] [kg/m3]	refractive index, [2]	viscosity, [1] [mPa·s]
308.15 K	1051.2	1.48328	34148
313.15 K	1048.2	1.48188	18392
318.15 K	1045.3	1.48038	10603
323.15 K	1042.3	1.47873	6381.1
328.15 K	1039.4	1.47693	3976.3
333.15 K	1035.8	1.47525	2571.7
338.15 K	1033.1	1.47377	1702.9
343.15 K	1030.4	1.47242	1158.3
348.15 K	1027.6	1.47111	807.1
353.15 K	1024.7	1.46984	574.9

C[N+](C)(C)CCO.O=S(=O)([O-])CCN(CCO)CCO
Settings	mass density, [1] [kg/m3]	refractive index, [2]	viscosity, [1] [mPa·s]
293.15 K	1248	–	33236
298.15 K	1244.8	1.50047	20518
303.15 K	1241.8	1.49937	13056
308.15 K	1238.9	1.49826	8631.6
313.15 K	1236.1	1.49716	5848.4
318.15 K	1233.3	1.49602	4045.8
323.15 K	1230.5	1.49476	2861
328.15 K	1227.7	1.49317	2061.7
333.15 K	1224.9	1.49148	1526.8
338.15 K	1222.2	1.49052	1136.6
343.15 K	1219.5	1.48921	858.1
348.15 K	1216.8	1.48749	658.8
353.15 K	1214.1	1.48633	512.7

CCCC[N+](CCCC)(CCCC)CCCC.O=S(=O)([O-])CC(O)CNC1CCCCC1
Settings	mass density, [1] [kg/m3]	refractive index, [2]	viscosity, [1] [mPa·s]
308.15 K	1020.4	1.48329	41227
313.15 K	1017.3	1.48189	22114
318.15 K	1014.4	1.48037	12579
323.15 K	1011.5	1.47937	7480.4
328.15 K	1008.6	1.47772	4609.3
333.15 K	1005.7	1.47617	2935.7
338.15 K	1002.8	1.47449	1926.8
343.15 K	999.9	1.47291	1299.4
348.15 K	997.2	1.47137	898.5
353.15 K	994.3	1.46985	635.7

CCCC[P+](CCCC)(CCCC)CCCC.O=S(=O)([O-])CC(O)CNC1CCCCC1
Settings	mass density, [1] [kg/m3]	refractive index, [2]	viscosity, [1] [mPa·s]
288.15 K	1037.4	1.49654	32956
293.15 K	1034.2	1.49497	17587
298.15 K	1031.1	1.49313	10098
303.15 K	1028.2	1.49162	6481.6
308.15 K	1025.1	1.48983	3796
313.15 K	1022.1	1.48782	2441.9
318.15 K	1019	1.48724	1624.2
323.15 K	1016	1.48547	1109.7
328.15 K	1012.9	1.48368	779.6
333.15 K	1009.8	1.48202	558.2
338.15 K	1006.8	1.48045	409
343.15 K	1003.8	1.47902	304.6
348.15 K	1000.9	1.47764	231
353.15 K	997.9	1.4763	177.9

CCCC[P+](CCCC)(CCCC)CCCC.O=S(=O)([O-])CC(O)CNC(CO)(CO)CO
Settings	Triple point temperature [K]
[1]	369.15
